Data from publication PMC11259170, “Small-molecule probe for IBD risk variant GPR65 I231L alters cytokine signaling networks through positive allosteric modulation” (Science Advances, 2024).
Like-named read-outs stand apart in the source and are kept apart here.

Columns and labels:
[1] = molecular target: T1, hGPR65 (Homo sapiens, UniProt Q8IYL9); assay: cAMP detection in HeLa expression cell line, hGPR65; type: cell-based; conditions: for Emax: HeLa, relative to 100uM forskolin (100%) and DMSO (0%), read-out: hGPR Max Activity %; for activity for hGPR65 among prioritized molecules: 1.56 μM
T1 construct: expressed in transfected cells; host or cells: HeLa (ATCC CCL-2), lentiviral transduction, pLX317
T1 sequence (Q8IYL9 whole entry): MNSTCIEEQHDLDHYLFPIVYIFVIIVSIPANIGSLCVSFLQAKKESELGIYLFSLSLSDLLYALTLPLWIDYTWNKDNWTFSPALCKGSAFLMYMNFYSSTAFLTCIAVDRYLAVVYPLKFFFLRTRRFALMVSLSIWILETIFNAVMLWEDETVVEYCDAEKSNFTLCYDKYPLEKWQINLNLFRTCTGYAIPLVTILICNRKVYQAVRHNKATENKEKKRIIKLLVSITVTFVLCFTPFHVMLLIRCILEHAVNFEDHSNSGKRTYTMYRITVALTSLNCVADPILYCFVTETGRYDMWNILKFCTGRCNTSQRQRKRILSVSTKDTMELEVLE
Method in brief: (§1)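 Compound was dispensed from a 10 mM DMSO stock, and puromycin-selected HeLa lines carrying lentiviral V5-tagged receptor were added at 1500 cells/well in pH 7.2 stimulation buffer. After 30 min stimulation at room temperature, cells were lysed and detection ran 1 h in the dark before cAMP TR-FRET reading.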

[2] = molecular target: T2, human GPR4 (hGPR4) (Homo sapiens, UniProt P46093); assay: cAMP detection in HeLa expression cell line, hGPR4; type: cell-based; conditions: for EC50: pH 7.2, 30 min
T2 construct: expressed in transfected cells; host or cells: HeLa (ATCC CCL-2), lentiviral transduction, pLX317
T2 sequence (P46093 whole entry): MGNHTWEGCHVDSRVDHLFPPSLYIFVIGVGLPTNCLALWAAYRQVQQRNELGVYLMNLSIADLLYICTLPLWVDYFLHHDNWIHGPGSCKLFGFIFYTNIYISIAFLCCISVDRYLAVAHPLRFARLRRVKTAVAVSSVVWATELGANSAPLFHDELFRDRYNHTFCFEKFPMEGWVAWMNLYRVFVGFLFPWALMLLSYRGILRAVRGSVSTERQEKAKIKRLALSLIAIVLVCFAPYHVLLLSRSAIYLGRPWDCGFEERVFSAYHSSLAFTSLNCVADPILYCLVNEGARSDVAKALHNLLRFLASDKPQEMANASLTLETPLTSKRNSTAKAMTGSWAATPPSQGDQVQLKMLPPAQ
Protocol: HeLa stable expression cell lines were produced by lentiviral transduction. Briefly, lentiviral plasmids for each GPCR with a C-terminal V5 Tag ([…]) were made in a pLX317 backbone using competent Escherichia coli (New England Biolabs, C3050H). Lenti-X 293 T (Takara, 632810) cells were transfected with the lentiviral plasmids to produce virus. Low-passage HeLa cells (American Type Culture Collection, CCL-2) were then transduced with lentivirus. After 48 hours, HeLa cells were cultured under selection with puromycin (3 μg/ml) and allowed to recover and expand before storing stocks in liquid nitrogen.
cAMP was measured in cells using the Lance Ultra cAMP Kit. HeLa cells were cultured under puromycin (3 μg/ml) selection. One day before the experiment, cells were seeded in T75 flasks and allowed to adhere overnight. On the day of the experiment, cells were washed twice with Dulbecco’s PBS and lifted using prewarmed 1× versene solution (Gibco, 15040066). Cells were counted in HBSS (Gibco, 14025092) and then resuspended in stimulation buffer prepared according to the manufacturer’s instructions and adjusted to pH 7.2 using 1 M sodium hydroxide. Cells were added to the plate at a density of 1500 cells per well in white opaque 384-well assay ready microplates containing 100 nl of 10 mM compound in DMSO. Cells were stimulated for 30 min at RT, then lysed and incubated with detection reagents for 1 hour in the dark at RT. Plates were read on BMG Labtech PHERAstar FSX (excitation, 337 nm; emission, 620 and 665 nm). Data analysis was performed using GraphPad Prism.

[3] = molecular target: T3, mGPR65 (Mus musculus, UniProt Q61038); assay: cAMP detection in HeLa expression cell line, mGPR65; type: cell-based; conditions: for Emax: HeLa, relative to 100uM forskolin (100%) and DMSO (0%), read-out: mGPR Max Activity %; for EC50: mGPR EC50 (uM); for cAMP activity, mGPR65 / activity for mGPR65 among prioritized molecules: pH 7.2; for activity for mGPR65 among prioritized molecules: 1.56 μM
T3 construct: expressed in transfected cells; host or cells: HeLa (ATCC CCL-2), lentiviral transduction, pLX317
T3 sequence (Q61038 whole entry): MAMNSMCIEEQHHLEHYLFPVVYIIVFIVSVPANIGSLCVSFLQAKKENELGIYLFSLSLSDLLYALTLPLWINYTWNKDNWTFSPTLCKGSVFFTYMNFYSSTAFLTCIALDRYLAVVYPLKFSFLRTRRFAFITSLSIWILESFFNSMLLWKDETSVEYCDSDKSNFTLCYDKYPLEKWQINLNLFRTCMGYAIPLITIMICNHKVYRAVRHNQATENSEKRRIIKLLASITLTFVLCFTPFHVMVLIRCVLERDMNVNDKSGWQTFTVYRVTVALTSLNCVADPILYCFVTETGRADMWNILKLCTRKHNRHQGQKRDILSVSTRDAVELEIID
Method in brief: as §1

[4] = Solubility in phosphate buffer; type: physicochemical; conditions: read-out: Solubility
[5] = Lipophilicity (logD); type: physicochemical; conditions: pH 7.4; pH7.4; read-out: LogD (pH7.4)
[6] = molecular target: T4, hGPR4-SmBiT (Homo sapiens, UniProt P46093); assay: Nano-BiT target engagement, LgBiT-mGs recruitment to hGPR4-SmBiT; type: cell-based; conditions: 10 μM
T4 construct: expressed in transfected cells; host or cells: Expi293F (Gibco), transient transfection
T4 sequence (P46093 whole entry): as the sequence (P46093 whole entry) above
Protocol: (§2) Target engagement was measured in Expi293F (Gibco, 100044202) cells using the Nano-Glo Live Cell Assay System (Promega, N2011). Nano-BiT plasmids were cloned from GPR65-, GPR4-, and GPR68-Tango plasmids. GPR65-Tango (Addgene plasmid # 66370; http://n2t.net/addgene:66370; RRID:Addgene_66370), GPR4-Tango (Addgene plasmid # 66358; http://n2t.net/addgene:66358; RRID:Addgene_66358), and GPR68-Tango (Addgene plasmid # 66371; http://n2t.net/addgene:66371; RRID:Addgene_66371) were gifts from Bryan Roth. Expi293F cells were transfected 1 day before kinetics with 500 ng of each plasmid using ExpiFectamine 293 Transfection Kit (Gibco, A14525). After 24 hours, cells were collected, washed, and resuspended in room temperature 0.1% PBS-BSA, adjusted to pH 7.4 using 1 M NaOH. Cells were transferred to white opaque 96-well microplates (100 μl per well, PerkinElmer, 6005290), followed by addition of the Nano-Glo Live Cell Reagent (25 μl per well). Baseline luminescence was measured for 10 cycles (1 cycle = 90 s) before adding compounds. All luminescence measurements were made on BMG Labtech PHERAstar FSX. Data analysis was performed using GraphPad Prism.

[7] = molecular target: T5, mGPR65-SmBiT (Mus musculus, UniProt Q61038); assay: Nano-BiT target engagement, LgBiT-mGs recruitment to mGPR65-SmBiT; type: cell-based; conditions: 10 μM
T5 construct: expressed in transfected cells; host or cells: Expi293F (Gibco), transient transfection
T5 sequence (Q61038 whole entry): as the sequence (Q61038 whole entry) above
Protocol: as §2

[8] = molecular target: T6, hGPR65-SmBiT (Homo sapiens, UniProt Q8IYL9); assay: Nano-BiT target engagement, LgBiT-mGs recruitment to hGPR65-SmBiT in Expi293F cells; type: cell-based; conditions: 10 μM
T6 construct: expressed in transfected cells; host or cells: Expi293F (Gibco), transient transfection
T6 sequence (Q8IYL9 whole entry): as the sequence (Q8IYL9 whole entry) above
Protocol: as §2

[9] = test system: GFP-expressing HeLa cells; assay: cAMP detection in HeLa expression cell line, GFP control; type: cell-based, human; conditions: Homo sapiens, HeLa, NA = no activity; for Emax: relative to 100uM forskolin (100%) and DMSO (0%), read-out: GFP Max Activity %
Method in brief: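 HeLa cells stably expressing C-terminally V5-tagged receptor or GFP (lentiviral, puromycin 3 μg/ml) stimulated at 1500 cells per well for 30 min at RT with compound (10 mM DMSO stock) in stimulation buffer at pH 7.2. cAMP detected by Lance Ultra TR-FRET after lysis and 1 h detection, excitation 337 nm, emission 620/665 nm.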

[10] = 1st hGPR column pair, NA = no activity
[11] = 2nd hGPR column pair, NA = no activity
[12] = hGPR EC50 (uM), NA = no activity
[13] = 2nd mGPR column pair, NA = no activity
[14] = first pair of columns, pH 7.2, 30 min
[15] = second pair of columns, pH 7.2, 30 min

Row | Compound | Emax [1, 10] [%] | Emax [1, 11] [%] | EC50 [1, 12] [µM] | EC50 ([1]; hGPR EC50 (uM), pH 7.2, 30 min) [µM] | EC50 ([1]; hGPR EC50, NA = no activity) [µM] | EC50 ([1]; hGPR EC50, pH 7.2, 30 min) [µM] | cAMP activity, hGPR65 ([1]; pH 7.2) | Emax [3, 13] [%] | Emax ([3]; NA = no activity) [%] | EC50 [3, 13] [µM] | EC50 [3, 14] [µM] | EC50 [3, 15] [µM] | EC50 ([3]; NA = no activity) [µM] | cAMP activity, mGPR65 [3] | activity for hGPR65 among prioritized molecules ([1]; pH 7.2) | solubility [4] [µM] | EC50 ([2]; GPR4 EC50 (uM)) [µM] | logD [5] | activity for mGPR65 among prioritized molecules [3] | Emax ([9]; 2nd GFP column pair) [%] | other results
1 | COCc1ccc(-c2cc(O)n3ncc(C(=O)Nc4ccc(C(C)C)cc4)c3n2)cc1 [BRD2166, COCc1ccc(cc1)-c1cc(O)n2ncc(C(=O)Nc3ccc(cc3)C(C)C)c2n1] | 75 | 73.7 | 2.08 | 2.94 | 2.12 | 2.85 | at least 40% | 31.2 | 39.3 | 0.347 | 0.618 | 0.372 | 0.362 | at least 40% | – | – | – | – | – | – | cAMP production relative to BRD2813, hGPR65 ([1]; pH 7.2): little effect on cAMP production; cAMP relative to DMSO in the hGPR4 cells ([2]; highest concentration tested): decrease in cAMP
2 | Cc1ccc(NC(=O)c2cnn3c(O)cc(-c4ccc(COC(C)C)c(Cl)c4)nc23)cc1 [BRD5059, O=C(NC1=CC=C(C)C=C1)C2=C3N(N=C2)C(O)=CC(C4=CC=C(COC(C)C)C(Cl)=C4)=N3] | 76 | 75.4 | 0.577 | 0.478 | 0.288 | 0.618 | at least 40% | 42.2 | 51 | 0.379 | 0.591 | 0.546 | 0.505 | at least 40% | highest activity | < 1.56 | 1.68 | > 5.25 | highest activity | – | response in cells expressing hGPR4-SmBiT [6]: failing to elicit responses; mGs recruitment / engagement of mGPR65 [7]: showed engagement; activity after HCl versus water, mGPR65 ([7]; HCl or H2O at cycle 10): showed activity when preceded by the addition of HCl but not water; mGs recruitment / engagement of hGPR65 [8]: showed engagement; activity after HCl versus water, hGPR65 ([8]; HCl or H2O at cycle 10): showed activity when preceded by the addition of HCl but not water
3 | Cc1ccc(NC(=O)c2cnn3c(O)cc(-c4ccc(F)c(Cl)c4)nc23)cc1 [BRD5067, O=C(NC1=CC=C(C)C=C1)C2=C3N(N=C2)C(O)=CC(C4=CC=C(F)C(Cl)=C4)=N3] | 74.6 | 69.2 | 0.232 | 0.534 | 0.583 | 0.554 | at least 40% | 37.6 | 41.4 | 0.537 | 0.449 | 0.23 | 0.328 | at least 40% | – | < 1.56 | 0.494 | > 4.89 | – | 1.17 | EC50 ([2]; GPR4 EC50, second pair of columns): 0.687 µM; cAMP induction in the hGPR4 cell line ([2]; pH 7.2): additionally induced cAMP
4 | Cc1ccc(NC(=O)c2cnn3c(O)cc(-c4ccc(COC(C)C)cc4)nc23)cc1F [BRD5078, O=C(NC1=CC=C(C)C(F)=C1)C2=C3N(N=C2)C(O)=CC(C4=CC=C(COC(C)C)C=C4)=N3] | 80.5 | 73.3 | 0.229 | 0.347 | 0.351 | 0.264 | at least 40% | 51.5 | 53.6 | 0.944 | 0.477 | 0.29 | 0.332 | at least 40% | highest activity | < 1.56 | – | > 4.96 | highest activity | – | activity for hGPR65 [1]: strong activity for hGPR65
5 | Cc1ccc(NC(=O)c2cnn3c(O)cc(-c4ccc(COC(C)C)cc4)nc23)cc1Cl [BRD5079, O=C(NC1=CC=C(C)C(Cl)=C1)C2=C3N(N=C2)C(O)=CC(C4=CC=C(COC(C)C)C=C4)=N3] | 81.1 | 82.5 | 0.428 | 0.348 | 0.564 | 0.417 | at least 40% | 48.8 | 57.5 | 0.276 | 0.345 | 0.591 | 0.604 | at least 40% | highest activity | < 1.56 | – | > 4.23 | highest activity | 2.88 | activity for hGPR65 [1]: strong activity for hGPR65; EC50 ([9]; 1st GFP column pair): 4310 nM; Emax ([9]; 1st GFP column pair): 1.78%; EC50 ([9]; 2nd GFP column pair): 1210 nM
